Test results taken from publication PMC7034089, “Synthesis of novel, DNA binding heterocyclic dehydroabietylamine derivatives as potential antiproliferative and apoptosis-inducing agents” (Drug Delivery, 2020).

Columns and labels:
[1] = test system: Hela (cervix) cells; experiment: MTT antiproliferative assay, Hela cells; assay type: cell-based; settings: Homo sapiens, 36 h incubation, read-out: IC50 ± SE, Hela
Procedure: (§1) Compounds L^1−L^10 were evaluated against human cancer cell lines Hela, HepG2, MCF-7, A549, and the normal cell HUVEC with the antiproliferative activities in vitro by MTT assay, and results are summarized as IC50 values in Table 3.
(§2) Hela, HepG2, MCF-7, A549, and HUVEC cells were used in the antiproliferative activity assay. Cancer cells were seeded in 96-well plates with a density of 10^4 cells per well, after 12 hours of incubation at 5% CO2 and 37 °C, the culture media was removed and cells were incubated with L^1−L^10 dissolved in DMEM at different concentrations (each concentration repeated 3 times) for 36 h at 5% CO2 and 37 °C. Subsequently, removed the culture media and the new culture medium containing MTT (1 mg/mL) was added, followed by incubating for 4 h to allow the formation of formazan dye (Xia et al., [2015]; Zhao et al., [2018]). After removing the medium, 200 μL DMSO was added to each well to dissolve the formazan crystals. Absorbance was measured at 595 nm in a microplate photometer. Cell viability values were determined (at least three times) according to the following formulae: cell viability (%) = the absorbance of experimental group/the absorbance of blank control group ×100%.

[2] = test system: HepG2 (liver) cells; experiment: MTT antiproliferative assay, HepG2 cells; assay type: cell-based; settings: Homo sapiens, 36 h incubation, read-out: IC50 ± SE, HepG2
Procedure: as §2

[3] = test system: MCF-7 (breast) cells; experiment: MTT antiproliferative assay, MCF-7 cells; assay type: cell-based; settings: Homo sapiens, MCF7, 36 h incubation, read-out: IC50 ± SE, MCF-7
Procedure: as §1, §2

[4] = test system: A549 (lung) cells; experiment: MTT antiproliferative assay, A549 cells; assay type: cell-based; settings: Homo sapiens, 36 h incubation, read-out: IC50 ± SE, A549
Procedure: as §1, §2

[5] = test system: HUVEC (umbilical vein) cells; experiment: MTT cytotoxicity assay, normal HUVEC cells; assay type: cell-based; settings: Homo sapiens, 36 h, 36 h incubation, read-out: IC50 ± SE, HUVEC (toxicity, normal cell)
Procedure: as §1, §2

[6] = pKb; assay type: physicochemical

| SMILES | IC50 [1] | IC50 [2] | IC50 [3] | IC50 [4] | IC50 [5] | melting point | pKb [6] |
| --- | --- | --- | --- | --- | --- | --- | --- |
| CC(C)c1ccc2c(c1)CCC1C(C)(CNC(=O)c3cnc(Cl)cn3)CCCC21C (stereo not shown) [L^10, 5-chloro-2-pyrazine-acyl-dehydroabietylamine] | > 100 µM | 56.1 ± 6.11 µM | 88.8 ± 3.46 µM | 39.6 ± 1.74 µM | 29.4 ± 2.35 µM | 152.4 to 154.5 °C | – |
| COc1cnc(C(=O)NCC2(C)CCCC3(C)c4ccc(C(C)C)cc4CCC23)cn1 (stereo not shown) [L^8, 5-methoxyl-2-pyrazine-acyl-dehydroabietylamine] | 20.2 ± 0.89 µM | 17.06 ± 0.07 µM | 8.81 ± 0.54 µM | 36 ± 2.18 µM | 95.1 ± 0.97 µM | – | – |
| CC(C)c1ccc2c(c1)CCC1C(C)(CNC(=O)c3cnccn3)CCCC21C (stereo not shown) [L^7, 2-pyrazine-acyl-dehydroabietylamine] | 43.5 ± 1.34 µM | 24 ± 1.33 µM | 11.8 ± 0.54 µM | 83.6 ± 15.7 µM | 66.8 ± 2.6 µM | 159.8 to 162.3 °C | – |
| CC(C)c1ccc2c(c1)CCC1C(C)(CN)CCCC21C (stereo not shown) [L^0, dehydroabietylamine] | 2.02 ± 0.02 µM | 2.56 ± 0.04 µM | 19.4 ± 0.39 µM | 5.02 ± 0.19 µM | 1.27 ± 0.03 µM | – | – |
| CC(C)c1ccc2c(c1)CCC1C(C)(CN=Cc3cccs3)CCCC21C (stereo not shown) [L^1, 2-thiophene-dehydroabietylamine-Schiff-base] | 9.02 ± 0.25 µM | 0.66 ± 0.02 µM | 5.33 ± 0.16 µM | 2.11 ± 0.06 µM | 5.98 µM | – | – |
| CC(C)c1ccc2c(c1)CCC1C(C)(CN=Cc3ccc(Br)s3)CCCC21C (stereo not shown) [L^3, 5-bromine-2-thiophene-dehydroabietylamine-Schiff-base] | 54.38 ± 0.38 µM | 1.63 ± 0.39 µM | 2.65 ± 0.07 µM | 95.5 ± 2.48 µM | 16.6 ± 1.08 µM | – | – |
| Cc1ccsc1C=NCC1(C)CCCC2(C)c3ccc(C(C)C)cc3CCC12 (stereo not shown) [L^2, 3-methyl-2-thiophene-dehydroabietylamine-Schiff-base] | 59.52 ± 0.27 µM | 28.78 ± 0.19 µM | 14.5 ± 2.48 µM | > 100 µM | 34 ± 1.57 µM | 38.2 to 39.1 °C | – |
| CC(C)c1ccc2c(c1)CCC1C(C)(CNC(=O)c3cccs3)CCCC21C (stereo not shown) [L^4, 2–thiophene-acyl-dehydroabietylamine] | 14.8 ± 0.22 µM | 46 ± 1.13 µM | 8.21 ± 0.65 µM | > 100 µM | > 100 µM | – | – |
| CC(C)c1ccc2c(c1)CCC1C(C)(CNC(=O)c3ccc(Br)s3)CCCC21C (stereo not shown) [L^6, 5-bromine-2-thiophene-acyl-dehydroabietylamine] | > 100 µM | 51.4 ± 2 µM | 55.6 ± 2.56 µM | 94.4 ± 2.56 µM | 75.5 ± 12.4 µM | 170.7 to 173.2 °C | – |
| Cc1cnc(C(=O)NCC2(C)CCCC3(C)c4ccc(C(C)C)cc4CCC23)cn1 (stereo not shown) [L^9, 5–methyl-2-pyrazine-acyl-dehydroabietylamine] | 52.5 ± 0.54 µM | 44.9 ± 0.75 µM | 6.66 ± 0.24 µM | > 100 µM | 18.9 ± 1.72 µM | 130.7 to 133.4 °C | – |
| Cc1ccc(C(=O)NCC2(C)CCCC3(C)c4ccc(C(C)C)cc4CCC23)s1 (stereo not shown) [L^5, 5-methyl-2-thiophene-acyl-dehydroabietylamine] | > 100 µM | 53.1 ± 1.95 µM | 8.27 ± 0.21 µM | > 100 µM | > 100 µM | 169.4 to 171.7 °C | – |
| COc1cccc2c1C(=O)c1c(O)c3c(c(O)c1C2=O)C[C@@](O)(C(=O)CO)C[C@@H]3O[C@H]1C[C@H](N)[C@H](O)[C@H](C)O1 [DOX, Doxorubicin, reference compound] | 3.55 ± 0.17 µM | 1.2 ± 0.04 µM | 14 ± 1.03 µM | 3.35 ± 0.69 µM | 4.4 ± 0.55 µM | – | 5.80 |
